Test results published in patent US8980820B2, “Fatty acid binding proteins as drug targets for endocannabinoids” (The Research Foundation for the State University of New York, priority 2010, dated 2015).
Entries after “also recorded” stand apart in the source; their conditions may differ.

What was measured:
[1] = stability of AEA during pre-equilibration in medium with BSA; type: physicochemical; settings: 75 min in medium containing 0.15% BSA, data not shown
Method: Cells were plated at ˜90% confluency in 35 mm dishes, washed twice in DMEM and preincubated with the desired pharmacological compounds or vehicle controls (EtOH or DMSO). The cells were washed twice in DMEM and subsequently incubated for 5 min, 10 or 3 sec, with 750 μl [^14C]AEA (100 nM) that was pre-equilibrated for 75 min in medium containing 0.15% BSA. The equilibration step is necessary to avoid uneven distribution of the radiotracer and to ensure that it is stable in solution pre-bound to BSA. Less than 1% of AEA was hydrolyzed during this pre-equilibration step (data not shown). Following the incubation, 750 μl of ice-cold DMEM+0.15% BSA was added to the plates, the media separated from cells, which were then washed with DMEM+0.15% BSA to remove non-specifically bound AEA. The cells were scraped three times with 400 μl of ice-cold 2 mM EDTA in PBS and chloroform:methanol (1:1) added to the media and cells and the phases separated by centrifugation. The resulting aqueous (containing [^14C]ethanolamine) and organic (containing intact [^14C]AEA) phases were counted by liquid scintillation counting. [^14C]AEA uptake was determined by summing the production of [^14C]ethanolamine in the media and cells with intact cellular [^14C]AEA. Hydrolysis of [^14C]AEA was quantified by production of [^14C]ethanolamine in the media and cells. […]

[2] = tested on: COS7-FAAH-eGFP cells; assay: [14C]AEA cellular uptake and hydrolysis in COS7-FAAH-eGFP cells; type: cell-based, African green monkey
Method: (§1) COS-7 and N18TG2 cells were grown in DMEM supplemented with 10% fetal bovine serum, 100 U/ml penicillin/streptomycin, 2 mM L-glutamine, and 1 mM sodium pyruvate in a humidified incubator containing 95% air and 5% CO2. Transfections were carried out using Lipofectamine 2000 (Invitrogen, Carlsbad, Calif.) according to the manufacturer's instructions. For stable cell selection, forty eight hours after transfection cells were expanded in medium containing 750 μg/ml geneticin (Invitrogen, Carlsbad, Calif.). Four weeks later, stable cells were subjected to flow cytometry at the Flow Cytometry Core Facility in Stony Brook University and cells expressing identical levels of the indicated FAAH-eGFP fusion proteins were collected and expanded.
(§2) Cells were plated at ˜90% confluency in 35 mm dishes, washed twice in DMEM and preincubated with the desired pharmacological compounds or vehicle controls (EtOH or DMSO). The cells were washed twice in DMEM and subsequently incubated for 5 min, 10 or 3 sec, with 750 μl [^14C]AEA (100 nM) that was pre-equilibrated for 75 min in medium containing 0.15% BSA. The equilibration step is necessary to avoid uneven distribution of the radiotracer and to ensure that it is stable in solution pre-bound to BSA. Less than 1% of AEA was hydrolyzed during this pre-equilibration step (data not shown). Following the incubation, 750 μl of ice-cold DMEM+0.15% BSA was added to the plates, the media separated from cells, which were then washed with DMEM+0.15% BSA to remove non-specifically bound AEA. The cells were scraped three times with 400 μl of ice-cold 2 mM EDTA in PBS and chloroform:methanol (1:1) added to the media and cells and the phases separated by centrifugation. The resulting aqueous (containing [^14C]ethanolamine) and organic (containing intact [^14C]AEA) phases were counted by liquid scintillation counting. [^14C]AEA uptake was determined by summing the production of [^14C]ethanolamine in the media and cells with intact cellular [^14C]AEA. Hydrolysis of [^14C]AEA was quantified by production of [^14C]ethanolamine in the media and cells. Blanks consisting of either untransfected COS-7 cells or N18TG2 cells treated with 100 nM of the FAAH inhibitor URB597 were subtracted from all conditions.

[3] = tested on: N18TG2 cells; assay: [14C]AEA cellular uptake and hydrolysis in N18TG2 cells; type: cell-based, mouse
Method: as §1, §2

[4] = target: T1, FAAH (Rattus norvegicus, UniProt P97612); assay: FAAH enzyme assay, COS-7-FAAH-eGFP homogenates; type: biochemical; settings: 100 μM inhibitor, 100 μM [14C]AEA, p>0.05
T1 construct: N-terminal transmembrane helix (residues 1-29) in red, residues 30-579 in black, and eGFP in green; expressed in transfected cells
T1 sequence (P97612 1-579): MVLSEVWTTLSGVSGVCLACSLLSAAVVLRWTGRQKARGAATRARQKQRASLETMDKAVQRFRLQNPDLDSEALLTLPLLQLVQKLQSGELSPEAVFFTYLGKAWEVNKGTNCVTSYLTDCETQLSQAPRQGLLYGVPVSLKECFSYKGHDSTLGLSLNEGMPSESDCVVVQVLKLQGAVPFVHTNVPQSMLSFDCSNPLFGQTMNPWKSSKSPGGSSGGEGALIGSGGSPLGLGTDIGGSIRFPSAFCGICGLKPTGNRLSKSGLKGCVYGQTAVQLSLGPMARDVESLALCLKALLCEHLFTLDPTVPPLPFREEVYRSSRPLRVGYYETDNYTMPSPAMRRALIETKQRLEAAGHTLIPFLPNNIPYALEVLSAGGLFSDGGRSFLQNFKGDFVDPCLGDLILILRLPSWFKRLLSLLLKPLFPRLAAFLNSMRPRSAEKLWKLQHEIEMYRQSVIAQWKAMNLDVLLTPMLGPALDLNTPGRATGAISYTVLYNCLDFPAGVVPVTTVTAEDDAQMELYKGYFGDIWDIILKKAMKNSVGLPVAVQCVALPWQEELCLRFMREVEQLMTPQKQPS
Method: (§3) FAAH activity assays were performed as previously described. Briefly, cell homogenates were incubated with 100 μM AEA+0.1 μCi [^14C]AEA in Tris-HCl (pH 9) containing 0.1% BSA. For activity analysis, time and total protein were adjusted to maintain substrate conversion at approximately 10%. […] AEA (100 μM) for 1 or 30 min, respectively. Reactions were stopped by the addition of two volumes of 1:1 chloroform:methanol and the phases separated by centrifugation. The methanol phase (containing [^14C]ethanolamine) was sampled and quantified using a Beckman LS 6500 scintillation counter.

[5] = target: T2, FAAH (Mus musculus, UniProt O08914); assay: FAAH enzyme assay, N18TG2 homogenates; type: biochemical; settings: 100 μM inhibitor, 100 μM [14C]AEA, p>0.05
T2 construct: endogenous in cells; host or cells: N18TG2 mouse neuroblastoma cells, used as homogenate
T2 sequence (O08914 1-579): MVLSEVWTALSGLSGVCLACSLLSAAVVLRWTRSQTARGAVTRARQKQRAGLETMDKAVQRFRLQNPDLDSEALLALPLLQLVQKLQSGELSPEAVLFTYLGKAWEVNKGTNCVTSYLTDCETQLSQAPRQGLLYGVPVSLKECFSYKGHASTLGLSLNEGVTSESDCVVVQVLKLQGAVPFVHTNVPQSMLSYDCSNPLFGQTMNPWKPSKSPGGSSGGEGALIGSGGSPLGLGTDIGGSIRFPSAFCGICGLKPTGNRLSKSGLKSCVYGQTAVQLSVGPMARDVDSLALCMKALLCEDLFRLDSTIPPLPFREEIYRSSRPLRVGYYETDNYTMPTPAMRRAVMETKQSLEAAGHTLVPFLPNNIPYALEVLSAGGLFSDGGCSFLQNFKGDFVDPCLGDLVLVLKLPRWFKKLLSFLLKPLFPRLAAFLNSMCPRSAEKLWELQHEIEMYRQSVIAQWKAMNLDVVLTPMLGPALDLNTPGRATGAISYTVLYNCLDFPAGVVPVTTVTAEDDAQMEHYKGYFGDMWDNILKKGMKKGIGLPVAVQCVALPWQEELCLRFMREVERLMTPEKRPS
Method: as §3

[6] = 20-100 μM BMS309403, dose-dependent
[7] = 100 μM, 5 min, vs vehicle, p<0.05
[8] = oleic acid 100 μM, 5 min incubation, [14C]AEA 100 nM

## CCCCC/C=C\C/C=C\C/C=C\C/C=C\CCCC(=O)NCCO [AEA, arachidonoyl ethanolamide]
[1]
  AEA hydrolyzed during pre-equilibration step: Less than 1%

## CCc1c(-c2ccccc2)c(-c2ccccc2)nn1-c1ccccc1-c1cccc(OCC(=O)O)c1 [BMS309403]
[2]; 3 sec, 20-100 μM
  intracellular hydrolysis of [14C]AEA following uptake: reduced
[2]; 3 sec, data not shown
  levels of cell associated [14C]AEA: without affecting
[2]; [6]
  maximal inhibition of [14C]AEA uptake: 48%
[2]; 20-100 μM, vs vehicle
  [14C]AEA hydrolysis (metabolism), effect in words: proportionally and significantly reduced; also recorded: significantly decreased
  [14C]AEA uptake, effect in words: significantly decreased
[3]; 3 sec, 20-100 μM
  intracellular hydrolysis of [14C]AEA following uptake: reduced
[3]; 3 sec, data not shown
  levels of cell associated [14C]AEA: without affecting
[3]; [6]
  maximal inhibition of [14C]AEA uptake: 57%
[3]; 20-100 μM, vs vehicle
  [14C]AEA hydrolysis (metabolism), effect in words: proportionally and significantly reduced; also recorded: significantly decreased
  [14C]AEA uptake, effect in words: significantly decreased
[4]
  [14C]AEA hydrolysis (FAAH activity) by homogenates: did not inhibit; also recorded: not inhibited
[5]
  [14C]AEA hydrolysis (FAAH activity) by homogenates: did not inhibit; also recorded: not inhibited

## CCCCCCCC/C=C\CCCCCCCC(=O)O [oleic acid]
[2]; [7]
  [14C]AEA hydrolysis, effect in words: significantly reduced
  [14C]AEA uptake, effect in words: significantly reduced
[2]; [8]
  reduction of [14C]AEA uptake: 25%
[3]; [7]
  [14C]AEA hydrolysis, effect in words: significantly reduced
  [14C]AEA uptake, effect in words: significantly reduced
[3]; [8]
  reduction of [14C]AEA uptake: 53%
[4]
  [14C]AEA hydrolysis (FAAH activity) by homogenates: did not inhibit; also recorded: not inhibited
[5]
  [14C]AEA hydrolysis (FAAH activity) by homogenates: did not inhibit; also recorded: not inhibited
